Patent US8735417B2, “Aminopyrimidines as Syk inhibitors” (Merck Sharp & Dohme Corp., priority 2009, dated 2014)

The compounds below were run against T1, recombinant human GST-SYK (Homo sapiens, UniProt P43405) (assay: Homogeneous Time-Resolved Fluorescence (HTRF) assay for the recombinant human SYK enzyme). Conditions: recombinant human GST-SYK 5 pM, ATP 25 μM, 10-dose titration; read-out: rhSYK Activity (IC50).
T1 construct: purchased Carna Biosciences 08-176
Format: biochemical
Procedure: Homogeneous Time-Resolved Fluorescence (HTRF) Assay for the Recombinant Human SYK Enzyme:
A recombinant GST-hSYK fusion protein was used to measure potency of compounds to inhibit human SYK activity. The recombinant human GST-SYK (Carna Biosciences #08-176) (5 pM final concentration) was incubated with various concentrations of the inhibitor diluted in DMSO (0.1% final concentration) for 10 minutes at room temperature in 15 mM Tris-HCl (pH 7.5), 0.01% tween 20, 2 mM DTT in 384 well plate format. To initiate the reaction the biotinylated substrate peptide (250 nM final concentration) that contains the phosphorylation site for SYK was added with magnesium (5 mM final concentration) and ATP (25 μM final concentration). Final volume of the reaction was 10 μL. Phosphorylation of the peptide was allowed to proceed for 45′ at room temperature. To quench the reaction and detect the phosphorylated product, 2 nM of a Europium-atiti-phosphotyrosine antibody (Perkin Elmer #AD0161) and 70 nM SA-APC (Perkin-Elmer #CR130-100) were added together in 15 mM Tris pH 7.5, 40 mM EDTA, 0.01% tween 20. Final volume of the quenching solution was 10 μL. The resulting HTRF signal was measured after 30 minutes on a EnVision (Perkin-Elmer) reader using a time-resolved fluorescence protocol.

| SMILES | IC50 |
| --- | --- |
| O=C1OCCN1c1ncc(-c2cccc(Nc3nccc(C(F)(F)F)n3)c2)s1 [Example 175, 3-[5-(3-{[4-(trifluoromethyl)pyrimidin-2-yl]amino}phenyl)-1,3-thiazol-2-yl]-1,3-oxazolidin-2-one] | ≤ 100 nM |
| CS(=O)(=O)Nc1ncc(-c2cccc(Nc3nccc(C(F)(F)F)n3)c2)s1 [Example 177] | ≤ 100 nM |
| FC(F)(F)c1ccnc(Nc2cccc(-c3cnc(-n4ccnc4)s3)c2)n1 [Example 178] | ≤ 100 nM |
| Cc1cc(Nc2nccc(C(F)(F)F)n2)cc(-c2cnc(N3CCOC3=O)s2)c1 [Example 180] | ≤ 100 nM |
| Nc1ncc(-c2cccc(Nc3nccc(C(F)(F)F)n3)c2)s1 [Example 181, N-[3-(2-amino-1,3-thiazol-5-yl)phenyl]-4-(trifluoromethyl)pyrimidin-2-amine] | ≤ 100 nM |
| CC(=O)OCC(=O)Nc1ncc(-c2cccc(Nc3nccc(C(F)(F)F)n3)c2)s1 [Example 182, 2-oxo-2-{[5-(3-{[4-(trifluoromethyl)pyrimidin-2-yl]amino}phenyl)-1,3-thiazol-2-yl]amino}ethyl acetate] | ≤ 100 nM |
| O=C(CO)Nc1ncc(-c2cccc(Nc3nccc(C(F)(F)F)n3)c2)s1 [Example 183, 2-hydroxy-N-[5-(3-{[4-(trifluoromethyl)pyrimidin-2-yl]amino}phenyl)-1,3-thiazol-2-yl]acetamide] | ≤ 100 nM |
| CC(=O)Nc1cc(Nc2nccc(C(F)(F)F)n2)cc(-c2cnc(N3CCCNC(=O)C3)s2)c1 [Example 184, N-(3-[2-(3-oxo-1,4-diazepan-1-yl)-1,3-thiazol-5-yl]-5-{[4-(trifluoromethyl)pyrimidin-2-yl]amino}phenyl)acetamide] | ≤ 100 nM |
| CCNC(=O)Nc1cc(Nc2nccc(C(F)(F)F)n2)cc(-c2cnc(N3CCCNC(=O)C3)s2)c1 [Example 185, 1-ethyl-3-(3-[2-(3-oxo-1,4-diazepan-1-yl)-1,3-thiazol-5-yl]-5-{[4-(trifluoromethyl)pyrimidin-2-yl]amino}phenyl)urea] | ≤ 100 nM |
| CC(=O)Nc1cc(Nc2nccc(C(F)(F)F)n2)cc(-c2cnc(N(C)CCO)s2)c1 [Example 186] | ≤ 100 nM |
| CC(=O)Nc1cc(Nc2nccc(C(F)(F)F)n2)cc(-c2cnc(NCCO)s2)c1 [Example 187] | ≤ 100 nM |
| CCNC(=O)Nc1cc(Nc2nccc(C(F)(F)F)n2)cc(-c2cnc(NCCO)s2)c1 [Example 188] | ≤ 100 nM |
| CN(CCO)c1ncc(-c2cc(N)cc(Nc3nccc(C(F)(F)F)n3)c2)s1 [Example 189] | ≤ 100 nM |
| Nc1cc(Nc2nccc(C(F)(F)F)n2)cc(-c2cnc(NCCO)s2)c1 [Example 190] | ≤ 100 nM |
| NC(=O)C1CCN(c2ncc(-c3cccc(Nc4nccc(C(F)(F)F)n4)c3)s2)CC1 [Example 191, 1-[5-(3-{[4-(trifluoromethyl)pyrimidin-2-yl]amino}phenyl)-1,3-thiazol-2-yl]piperidine-4-carboxamide] | ≤ 100 nM |
| Cc1ccnc(Nc2cccc(-c3cnc(N4CCC(C(=O)O)CC4)s3)c2)n1 [Example 193, 1-(5-{3-[(4-methylpyrimidin-2-yl)amino]phenyl}-1,3-thiazol-2-yl)piperidine-4-carboxylic acid] | 100 to 1000 nM |
| OCCN(CCO)c1ncc(-c2cc(Nc3nccc(C(F)(F)F)n3)cc(N3CCOCC3)c2)s1 [Example 194, 2,2′-({5-[3-(morphpholin-4-yl)-5-{[4-(trifluoromethyl)pyrimidin-2-yl]amino}phenyl]-1,3-thiazol-2-yl}imino)diethanol] | ≤ 100 nM |
| Cc1cc(Nc2ncc(Cl)cn2)cc(-c2cnc(N3CCCNC(=O)C3)s2)c1 [Example 200, 4-(5-{3-[(5-chloropyrimidin-2-yl)amino]-5-methylphenyl}-1,3-thiazol-2-yl)-1,4-diazepan-2-one] | ≤ 100 nM |
| Cc1cc(Nc2ncc(F)cn2)cc(-c2cnc(N3CCCNC(=O)C3)s2)c1 [Example 201] | ≤ 100 nM |
| Cc1cnc(Nc2cc(C)cc(-c3cnc(N4CCCNC(=O)C4)s3)c2)nc1 [Example 203] | ≤ 100 nM |
| COc1nc(Nc2cc(C)cc(-c3cnc(N4CCCNC(=O)C4)s3)c2)ncc1Cl [Example 210, 4-(5-{3-[(5-chloro-4-methoxypyrimidin-2-yl)amino]-5-methylphenyl}-1,3-thiazol-2-yl)-1,4-diazepan-2-one] | ≤ 100 nM |
| Cc1cc(Nc2ncc(Cl)c(C)n2)cc(-c2cnc(N3CCCNC(=O)C3)s2)c1 [Example 211, 4-(5-{3-[(5-Chloro-4-methylpyrimidin-2-yl)amino]-5-methylphenyl}-1,3-thiazol-2-yl)-1,4-diazepan-2-one] | ≤ 100 nM |
| Cc1cc(Nc2nccc(C(F)(F)F)n2)cc(-c2csc(N3CCC(O)CC3)n2)c1 [Example 225, 1-[4-(3-methyl-5-{[4-(trifluoromethyl)pyrimidin-2-yl]amino}phenyl)-1,3-thiazol-2-yl]piperidin-4-ol] | 100 to 1000 nM |

Continued, values first:

| IC50 | SMILES |
| --- | --- |
| ≤ 100 nM | Cc1cc(Nc2nccc(C3CCC3)n2)cc(-c2cnc(N3CCCNC(=O)C3)s2)c1 [Example 195] |
| ≤ 100 nM | Cc1cc(Nc2nccc(C3CCCCC3)n2)cc(-c2cnc(N3CCCNC(=O)C3)s2)c1 [Example 196, 4-(5-{3-[(4-cyclohexylpyrimidin-2-yl)amino]-5-methylphenyl}-1,3-thiazol-2-yl)-1,4-diazepan-2-one] |
| ≤ 100 nM | Cc1cc(Nc2nccc(C3CCCC3)n2)cc(-c2cnc(N3CCCNC(=O)C3)s2)c1 [Example 197, 4-(5-{3-[(4-cyclopentylpyrimidin-2-yl)amino]-5-methylphenyl}-1,3-thiazol-2-yl)-1,4-diazepan-2-one] |
| ≤ 100 nM | Cc1cc(Nc2nccc(C3CC3)n2)cc(-c2cnc(N3CCCNC(=O)C3)s2)c1 [Example 198, 4-(5-{3-[(4-cyclopropylpyrimidin-2-yl)amino]-5-methyphenyl}-1,3-thiazol-2-yl)-1,4-diazepan-2-one] |
| ≤ 100 nM | C=Cc1ccnc(Nc2cc(C)cc(-c3cnc(N4CCCNC(=O)C4)s3)c2)n1 [Example 199, 4-(5-{3-[(4-ethenylpyrimidin-2-yl)amino]-5-methylphenyl}-1,3-thiazol-2-yl)-1,4-diazepan-2-one] |
| ≤ 100 nM | Cc1cc(Nc2ncc(C3CC3)cn2)cc(-c2cnc(N3CCCNC(=O)C3)s2)c1 [Example 202] |
| ≤ 100 nM | Cc1cc(Nc2nccc(C#N)n2)cc(-c2cnc(N3CCCNC(=O)C3)s2)c1 [Example 204] |
| ≤ 100 nM | COc1ccnc(Nc2cc(C)cc(-c3cnc(N4CCCNC(=O)C4)s3)c2)n1 [Example 205] |
| ≤ 100 nM | Cc1cc(Nc2nccc(C(C)C)n2)cc(-c2cnc(N3CCCNC(=O)C3)s2)c1 [Example 206] |
| ≤ 100 nM | CCc1ccnc(Nc2cc(C)cc(-c3cnc(N4CCCNC(=O)C4)s3)c2)n1 [Example 207] |
| ≤ 100 nM | Cc1cc(Nc2nccc(OCc3ccccc3)n2)cc(-c2cnc(N3CCCNC(=O)C3)s2)c1 [Example 208] |
| ≤ 100 nM | Cc1cc(Nc2nccc(O[C@@H]3CCNC3)n2)cc(-c2cnc(N3CCCNC(=O)C3)s2)c1 [Example 212, 4-{5-[3-methyl-5-({4-[(3R)-pyrrolidin-3-yloxy]pyrimidin-2-yl}amino)phenyl]-1,3-thiazol-2-yl}-1,4-diazepan-2-one] |
| ≤ 100 nM | Cc1cc(Nc2nccc(OC3CCOC3)n2)cc(-c2cnc(N3CCCNC(=O)C3)s2)c1 (stereo not drawn) [Example 214] |
| ≤ 100 nM | Cc1cc(Nc2nccc(OC3CCNCC3)n2)cc(-c2cnc(N3CCCNC(=O)C3)s2)c1 [Example 215, 4-[5-(3-methyl-5-{[4-(piperidin-4-yloxy)pyrimidin-2-yl]amino}phenyl)-1,3-thiazol-2-yl]-1,4-diazepan-2-one] |
| 100 to 1000 nM | Cc1cc(Nc2ncc(F)c(OC3CCOC3)n2)cc(-c2cnc(N3CCCNC(=O)C3)s2)c1 (stereo not drawn) [Example 216, 4-[5-(3-{[5-fluoro-4-(tetrahydrofuran-3-yloxy)pyrimidin-2-yl]amino}-5-methylphenyl)-1,3-thiazol-2-yl]-1,4-diazepan-2-one] |
| ≤ 100 nM | CCCCSc1ccnc(Nc2cc(C)cc(-c3cnc(N4CCCNC(=O)C4)s3)c2)n1 [Example 217, 4-[5-(3-{[4-(butylsulfanyl)pyrimidin-2-yl]amino}-5-methyphenyl)-1,3-thiazol-2-yl]-1,4-diazepan-2-one] |
| ≤ 100 nM | Cc1cc(Nc2nccc(OCCO)n2)cc(-c2cnc(N3CCCNC(=O)C3)s2)c1 [Example 218] |
| ≤ 100 nM | Cc1cc(Nc2nccc(SC(C)C)n2)cc(-c2cnc(N3CCCNC(=O)C3)s2)c1 [Example 219] |
| ≤ 100 nM | CCCSc1ccnc(Nc2cc(C)cc(-c3cnc(N4CCCNC(=O)C4)s3)c2)n1 [Example 220] |
| ≤ 100 nM | CCSc1ccnc(Nc2cc(C)cc(-c3cnc(N4CCCNC(=O)C4)s3)c2)n1 [Example 221] |
| ≤ 100 nM | Cc1cc(Nc2nccc(SCCO)n2)cc(-c2cnc(N3CCCNC(=O)C3)s2)c1 [Example 222, 4-{5-[3-({4-[(2-hydroxyethyl)sulfanyl]pyrimidin-2-yl}amino)-5-methylphenyl]-1,3-thiazol-2-yl}-1,4-diazepan-2-one] |
| ≤ 100 nM | Cc1cc(Nc2nccc([S+](C)[O-])n2)cc(-c2cnc(N3CCCNC(=O)C3)s2)c1 (stereo not drawn) [Example 223, 4-[5-(3-methyl-5-{[4-(methylsulfinyl)pyrimidin-2-yl]amino}phenyl)-1,3-thiazol-2-yl]-1,4-diazepan-2-one] |
